Assay results from the METLIN SMRT retention time set (Domingo-Almenara et al. 2019).

Experiment: gradient 5% acetonitrile 3 min, to 50% in 2 min, to 85% in 15 min, held 3 min, 100 µL/min
Conditions: column: Zorbax Extend-C18 2.1 x 50 mm; eluents: water / acetonitrile, 0.1% formic acid
Outline: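 Retention times of pure standards were taken from adduct peaks that were selected by computer and manually inspected. Over 3 months, mixtures of ~100 molecules were run by HPLC–quadrupole time-of-flight mass spectrometry in positive and negative ionization mode. The Zorbax Extend-C18 column (2.1 × 50 mm, 1.8 μm) ran at 100 μL/min in water and acetonitrile, each containing 0.1% formic acid, with 40 μL dead volume and 900 μL dwell volume.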

| RP-LC retention time | Structure (SMILES) |
| --- | --- |
| 737 s | O=C1CC(C(F)(F)F)c2c(c(C(=O)O)cn2-c2ccccc2Cl)N1 (stereo unspecified) |
| 904 s | O=C(Cn1c(=O)c2cccn2c2ccccc21)Nc1cccc(Cl)c1 |
| 829 s | CC(Cc1ccco1)NC(=O)c1ccc2ccnc(N3CCN(c4ccc(F)cc4)CC3)c2c1 (stereo unspecified) |
| 820 s | O=C(Nc1cccn2ncnc12)c1ccc(Cl)s1 |
| 799 s | CCOc1ccc(C(=O)N2CCC3(CC2)N=C(c2ccccc2)NO3)cc1 |
| 688 s | O=C(NC1CC1)c1ccc2ccnc(N3CCN(c4ccc(F)cc4)CC3)c2c1 |
| 595 s | Cn1cc(CCN2CCC(C(=O)NCc3ccc(F)cc3)CC2)c2cccnc21 |
| 666 s | Oc1ccc(-c2nc3ncccn3c2Nc2ccc(Cl)cc2)cc1 |
| 889 s | CCOc1ccccc1NC(=O)N1CCC(n2cnc3c(Cl)cccc3c2=O)CC1 |
| 578 s | CCN1CCN(CCCNC(=O)CC2CCN(C(=O)c3[nH]c(C)c(C)c3C)CC2)CC1 |
| 581 s | CC(=O)N(C)Cc1nc2ccccc2n1CC(=O)N1CCCC1 |
| 1020 s | Cc1noc(-c2cc(=O)n(CC(=O)Nc3ccc(C(C)C)cc3)c3ccccc23)n1 |
| 780 s | C=CCNC(=O)C1CCCN(C(=O)Nc2ccc(NC(=O)Nc3ccc(CC)cc3)cc2)C1 (stereo unspecified) |
| 1110 s | COc1cc(NC(=O)Cn2nc(N3CCC(C)CC3)c3ccccc3c2=O)cc(OC)c1 |
| 890 s | CCOC(=O)c1[nH]c(C)c(C(=O)C(C)N(C(=O)c2ccc(F)cc2)C2CC2)c1C (stereo unspecified) |
| 873 s | Cc1ccc(S(=O)(=O)N2CCC(CCC(=O)NCc3ccccc3)CC2)cc1 |
| 874 s | NS(=O)(=O)c1ccc(CCNS(=O)(=O)c2ccc(-c3cc(C(F)(F)F)on3)o2)cc1 |

| RP-LC retention time | Structure (SMILES) |
| --- | --- |
| 704 s | O=C(NCCn1nnc2cc(C(=O)N3CCCC3)ccc21)Nc1ccc(F)c(Cl)c1 |
| 671 s | CCOc1cc(=O)n2c(c1C(=O)NC1CCCC1)CCCCC2 |
| 722 s | COc1ccc2c(ccn2CCNC(=O)C2CC(=O)N(c3n[nH]c4ccccc34)C2)c1 (stereo unspecified) |
| 678 s | COc1cc(Cl)c(C)cc1NC(=O)Cn1ncc2c(N3CCN(c4ccccn4)CC3)ncnc21 |
| 828 s | COc1ccc(-c2cc(N3CCC(NC(=O)c4cccc(OC(F)(F)F)c4)C3)n[nH]2)cc1 (stereo unspecified) |
| 638 s | CSc1ncccc1C(=O)Nc1ccc2c(c1)CCC(=O)N2 |
| 731 s | COc1ccc(-c2nnc(-c3ccc(C)c(S(N)(=O)=O)c3)o2)cc1OC |
| 744 s | CCNC(=O)c1ccc(-c2nc3cc(NS(=O)(=O)c4ccc(C(C)C)cc4)ccc3n2C)cc1 |
| 990 s | Cc1ccc(CN2CCN(C3CCN(S(=O)(=O)c4ccc(C)c(Cl)c4)CC3)C(=O)C2=O)cc1 |
| 795 s | CC(=O)c1ccc(S(=O)(=O)NCCC2CCN(C(=O)c3ccc(F)cc3)CC2)cc1 |
| 669 s | CSc1ccc(Cl)c(C(=O)Nc2ccc3c(N4CCOCC4)ncnc3c2)c1 |
| 972 s | CCS(=O)(=O)Nc1ccc(C2(C(=O)NCc3ccc(F)cc3F)CCCCC2)cc1 |
| 1030 s | Cc1ccc(Cl)cc1NS(=O)(=O)c1ccc2onc(C(=O)N3CCCC3)c2c1 |
| 693 s | O=C(Cn1cnc2nc(N3CCCC(C(=O)NC4CC4)C3)sc2c1=O)Nc1cc(F)ccc1F (stereo unspecified) |
| 616 s | CCN1C(=O)COc2cc(-c3noc(C(=O)N4CCN(C)CC4)n3)ccc21 |
| 875 s | Cc1ccc2[nH]cc(CCN3CC(C(=O)NC4CCCCCC4)CC3=O)c2c1 (stereo unspecified) |
| 729 s | COCC(=O)Nc1ccc(-c2nc3cccnc3s2)cc1C |

| Structure (SMILES) | RP-LC retention time |
| --- | --- |
| O=S(=O)(c1ccc(F)cc1)N1[C@H]2CC[C@@H]1c1cncnc1C2 | 709 s |
| OC1CCCCC1N1CCC(c2ccccc2)CC1 (stereo unspecified) | 679 s |
